Several values for one entry are separate records, joined by “and”; a condition that tells them apart may be missing. Equal values may be shown once. Where only a bound is given, the exact number is not on record here.

In one series the test system is Mtb-lux. It counts as cell-based, M. tuberculosis CDC1551.
The nature of series [1]: reductive demetallation by glutathione. It is filed as physicochemical.
The next series in a line: tolerability of mice. It counts as in vivo. The settings on record: 400 mg/kg, preliminary work.
Series [2] has as its system J774A.1 macrophage cell line. Briefly: cytotoxicity assay (resazurin). It counts as cell-based. The settings on record: J774 macrophages, 24 h. The method, then:
Cytotoxicity was assessed on J774A.1 (ATCC® TIB67™) macrophage cell line. Macrophages were cultured in Dulbecco's Modified Eagle Medium (DMEM, GIBCO) supplemented with 10% heat inactivated fetal calf serum (Atlanta Biologicals), 1 mM sodium pyruvate (CellGro), 2 mM L-glutamine (CORNING) and 1% PenStrep (100 U/mL Penicillin, […] Streptomycin, GIBCO). Macrophages were seeded in a 384-well black transparent bottom plate (Corning) at 2.5×10^4 cells/well. After macrophages were allowed to adhere for 4-6 h, a two-fold dilution series of the compounds (200-0.006 μM) and controls (2% Triton X and 0.5% DMSO) were added to the wells. The plate was incubated for 24 h and then 1/10th volume of resazurin dye was added. Fluorescence was measured following 4 h incubation with the dye at an excitation of 560 nm and emission at 590 nm with cell viability indicated by conversion of resazurin to fluorescent product resofurin. Viability is determined as percent growth calculated relative to the DMSO control.
For orientation: Alamar Blue is a resazurin reagent that responds to reducing activity.

Another series has as its target M. tuberculosis gyrase (Mycobacterium tuberculosis, UniProt P9WG45+P9WG47).
A further series deals with E. coli gyrase (Escherichia coli, UniProt P0AES4+P0AES6).
Sequence of E. coli gyrase (P0AES4 whole entry, one chain of several): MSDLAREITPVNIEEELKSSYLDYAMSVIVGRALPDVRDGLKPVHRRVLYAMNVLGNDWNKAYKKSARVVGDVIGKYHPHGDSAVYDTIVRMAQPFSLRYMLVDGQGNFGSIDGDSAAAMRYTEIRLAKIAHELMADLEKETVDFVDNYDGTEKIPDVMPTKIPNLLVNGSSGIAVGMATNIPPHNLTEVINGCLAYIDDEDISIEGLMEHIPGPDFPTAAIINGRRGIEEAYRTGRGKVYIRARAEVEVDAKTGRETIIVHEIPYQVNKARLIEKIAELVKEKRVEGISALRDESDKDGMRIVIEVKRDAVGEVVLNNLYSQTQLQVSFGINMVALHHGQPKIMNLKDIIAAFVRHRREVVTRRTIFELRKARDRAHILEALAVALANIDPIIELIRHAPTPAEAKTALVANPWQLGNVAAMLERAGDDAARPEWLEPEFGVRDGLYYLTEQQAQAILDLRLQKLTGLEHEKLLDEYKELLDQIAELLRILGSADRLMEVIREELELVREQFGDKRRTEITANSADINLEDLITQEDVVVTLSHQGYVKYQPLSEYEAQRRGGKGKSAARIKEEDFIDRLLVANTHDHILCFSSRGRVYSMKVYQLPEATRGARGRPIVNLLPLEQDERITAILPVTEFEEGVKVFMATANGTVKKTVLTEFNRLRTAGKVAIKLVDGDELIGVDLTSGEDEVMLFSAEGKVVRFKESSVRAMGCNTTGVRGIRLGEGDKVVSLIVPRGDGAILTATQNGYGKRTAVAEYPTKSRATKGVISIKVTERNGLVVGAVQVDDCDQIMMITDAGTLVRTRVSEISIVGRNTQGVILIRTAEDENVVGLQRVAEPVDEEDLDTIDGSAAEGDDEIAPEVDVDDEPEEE
The test system of a further series is Mtb CDC1551. In words: time-kill kinetic assay, Mtb. It is filed as cell-based, M. tuberculosis. The settings on record: for mode of action against Mtb: actively replicating Mtb. The method, then: To examine whether bacterial killing is concentration and/or time-dependent, a time-kill kinetic study was carried out with 8, 10, 11, 14, and 15. For Mtb, CDC1551 cultures diluted to an OD of 0.01 in 7H9 were added to a solid-white 384-well plate containing compounds at final concentrations of 0, 1×, 4× and 8× MIC in a total volume of 30 μl. DMSO control was also included. The plate was incubated for 6 days for Mtb. At every time point-0, 24, 48 and 72 h post-inoculation, an aliquot was taken, serially diluted and 50 μl plated onto 7H10 quad-plates supplemented with OADC. Colonies were counted after 3-4 weeks of incubation at 37° C. and CFU/ml was calculated. […] The plate was incubated for 3 days and colonies were counted after 5 days of incubation following plating. A 1-2 log10 decrease in CFU/ml is considered bactericidal. Luminescence was also read at every time point before taking an aliquot for serial dilution.

The next series deals with MtbTopo1 (Mycobacterium tuberculosis, UniProt P9WG49). Briefly: topoisomerase 1A relaxation assay, MtbTopo1. It counts as biochemical, M. tuberculosis.
Sequence of MtbTopo1 (P9WG49 whole entry, looked up): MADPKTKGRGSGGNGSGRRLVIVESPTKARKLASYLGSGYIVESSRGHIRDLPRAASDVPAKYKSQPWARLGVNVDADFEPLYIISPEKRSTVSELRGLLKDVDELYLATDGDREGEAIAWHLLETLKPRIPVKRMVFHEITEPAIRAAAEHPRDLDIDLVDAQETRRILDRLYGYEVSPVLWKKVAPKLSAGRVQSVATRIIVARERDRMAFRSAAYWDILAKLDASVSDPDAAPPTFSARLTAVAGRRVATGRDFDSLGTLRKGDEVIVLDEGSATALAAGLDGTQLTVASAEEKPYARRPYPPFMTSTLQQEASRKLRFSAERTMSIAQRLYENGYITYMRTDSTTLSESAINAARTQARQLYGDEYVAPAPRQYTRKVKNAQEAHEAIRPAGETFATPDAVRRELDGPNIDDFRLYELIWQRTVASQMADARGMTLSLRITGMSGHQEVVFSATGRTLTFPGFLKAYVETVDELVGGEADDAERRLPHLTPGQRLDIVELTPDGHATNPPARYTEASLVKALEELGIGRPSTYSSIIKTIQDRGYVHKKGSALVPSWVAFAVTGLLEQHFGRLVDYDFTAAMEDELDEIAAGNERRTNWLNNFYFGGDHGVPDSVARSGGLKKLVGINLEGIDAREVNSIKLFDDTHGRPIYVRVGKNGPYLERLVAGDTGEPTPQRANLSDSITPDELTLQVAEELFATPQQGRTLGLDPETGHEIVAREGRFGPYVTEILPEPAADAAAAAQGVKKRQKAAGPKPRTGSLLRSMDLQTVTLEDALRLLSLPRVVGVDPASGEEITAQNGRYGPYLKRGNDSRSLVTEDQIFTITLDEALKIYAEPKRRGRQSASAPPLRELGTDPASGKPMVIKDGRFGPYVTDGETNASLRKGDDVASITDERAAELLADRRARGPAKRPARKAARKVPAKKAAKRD
A further series concerns Mab 390S-lux. It is filed as cell-based, M. abscessus 390S.
The target in the next series is EcTopo1 (Escherichia coli, UniProt P06612).
Sequence of EcTopo1 (P06612 whole entry): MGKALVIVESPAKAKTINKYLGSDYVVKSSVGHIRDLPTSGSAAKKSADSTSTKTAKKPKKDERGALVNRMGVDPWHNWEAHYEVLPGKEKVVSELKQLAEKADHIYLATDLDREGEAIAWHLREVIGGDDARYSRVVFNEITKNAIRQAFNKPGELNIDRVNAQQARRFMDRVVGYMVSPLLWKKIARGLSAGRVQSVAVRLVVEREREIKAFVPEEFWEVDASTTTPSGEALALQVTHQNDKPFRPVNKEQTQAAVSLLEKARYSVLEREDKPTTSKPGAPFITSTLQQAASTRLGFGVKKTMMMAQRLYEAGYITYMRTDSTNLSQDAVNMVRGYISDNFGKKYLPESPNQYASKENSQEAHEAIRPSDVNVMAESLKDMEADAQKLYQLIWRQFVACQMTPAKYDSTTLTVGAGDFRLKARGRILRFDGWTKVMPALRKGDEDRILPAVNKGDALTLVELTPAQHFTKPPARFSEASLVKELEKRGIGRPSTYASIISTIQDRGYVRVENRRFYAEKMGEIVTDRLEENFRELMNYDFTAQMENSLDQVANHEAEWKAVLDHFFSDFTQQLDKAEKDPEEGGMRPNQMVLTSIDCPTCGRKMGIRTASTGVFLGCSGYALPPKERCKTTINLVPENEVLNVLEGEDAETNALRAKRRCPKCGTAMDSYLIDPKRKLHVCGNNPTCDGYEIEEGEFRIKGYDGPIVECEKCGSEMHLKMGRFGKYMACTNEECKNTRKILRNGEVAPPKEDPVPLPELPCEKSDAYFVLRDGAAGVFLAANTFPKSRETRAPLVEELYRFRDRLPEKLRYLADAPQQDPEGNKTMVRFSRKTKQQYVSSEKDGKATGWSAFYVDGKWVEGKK
The next series deals with Mab. As to conditions: even at 32 and 64-fold MIC; cited from earlier work.
A further series deals with Mtb. The settings on record: cited from earlier work.

Sequence of M. tuberculosis gyrase (P9WG45 whole entry, looked up): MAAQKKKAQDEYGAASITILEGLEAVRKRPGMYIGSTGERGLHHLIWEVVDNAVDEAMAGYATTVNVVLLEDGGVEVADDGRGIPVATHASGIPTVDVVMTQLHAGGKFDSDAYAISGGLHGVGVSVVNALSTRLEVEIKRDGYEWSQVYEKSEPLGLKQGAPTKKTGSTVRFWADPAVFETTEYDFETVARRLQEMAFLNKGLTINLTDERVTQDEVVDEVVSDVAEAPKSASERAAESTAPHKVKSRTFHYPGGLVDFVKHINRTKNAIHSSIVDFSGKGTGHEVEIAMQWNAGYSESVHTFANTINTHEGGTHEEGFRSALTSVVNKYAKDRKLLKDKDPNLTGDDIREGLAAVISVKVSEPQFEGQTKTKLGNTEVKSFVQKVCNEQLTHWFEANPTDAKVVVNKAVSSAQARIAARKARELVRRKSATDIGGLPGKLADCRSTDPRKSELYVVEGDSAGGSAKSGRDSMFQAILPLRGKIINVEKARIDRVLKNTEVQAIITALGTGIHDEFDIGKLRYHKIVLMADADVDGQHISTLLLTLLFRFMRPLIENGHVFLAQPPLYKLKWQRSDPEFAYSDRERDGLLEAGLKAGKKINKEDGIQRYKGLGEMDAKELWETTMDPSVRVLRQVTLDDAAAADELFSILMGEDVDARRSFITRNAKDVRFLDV
Sequence of M. tuberculosis gyrase (P9WG47 whole entry, looked up): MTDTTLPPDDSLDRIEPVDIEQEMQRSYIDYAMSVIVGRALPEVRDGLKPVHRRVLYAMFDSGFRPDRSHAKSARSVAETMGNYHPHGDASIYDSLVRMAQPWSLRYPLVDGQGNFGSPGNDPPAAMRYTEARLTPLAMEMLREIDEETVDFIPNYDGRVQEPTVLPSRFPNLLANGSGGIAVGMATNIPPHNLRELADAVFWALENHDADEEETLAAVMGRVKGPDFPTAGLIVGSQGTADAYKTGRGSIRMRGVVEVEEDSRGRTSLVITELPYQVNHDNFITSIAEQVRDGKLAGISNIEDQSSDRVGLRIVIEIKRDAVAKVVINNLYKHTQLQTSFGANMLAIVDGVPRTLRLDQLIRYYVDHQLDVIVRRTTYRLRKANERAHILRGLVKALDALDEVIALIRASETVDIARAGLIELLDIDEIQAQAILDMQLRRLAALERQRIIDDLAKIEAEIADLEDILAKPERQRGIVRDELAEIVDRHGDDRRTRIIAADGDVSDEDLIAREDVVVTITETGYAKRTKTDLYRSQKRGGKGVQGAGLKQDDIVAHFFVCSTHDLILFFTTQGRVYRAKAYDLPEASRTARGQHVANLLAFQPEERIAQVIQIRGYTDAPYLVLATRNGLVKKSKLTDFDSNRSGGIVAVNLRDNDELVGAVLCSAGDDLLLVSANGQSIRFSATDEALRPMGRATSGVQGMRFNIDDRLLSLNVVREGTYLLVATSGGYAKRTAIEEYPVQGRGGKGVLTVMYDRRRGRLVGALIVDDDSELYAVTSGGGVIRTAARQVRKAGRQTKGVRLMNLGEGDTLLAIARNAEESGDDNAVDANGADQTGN
Procedure for E. coli gyrase: (§1) In FIG. 8A-FIG. 8D, the IC50 was determined as the drug concentration which inhibited 50% of the supercoiling activity.
Source text for EcTopo1: (§2) In FIGS. 7A and 7B, R indicates relaxed circular DNA; PR indicates partially relaxed DNA; and SC indicates supercoiled DNA.
Procedure for M. tuberculosis gyrase: as §1
Source text for MtbTopo1: as §2

By IC50 is commonly meant the point on the concentration scale where inhibition reaches its midpoint. A high value points to weaker potency. `C1=NCCCCN=Cc2ccc3[n]2[Au+][n]2c1ccc2-c1nc2ccccc2nc1-3.F[P-](F)(F)(F)(F)F` [Compound 10]: the “MIC Mtb” value with Mtb-lux came to 0.12 µM. Moreover, the “loss of the Au(III) ion” value in series [1] is reported as “cannot be lost since it is very tightly bound”. Also, the tolerability entry in the series “tolerability of mice” is “tolerated”. In [2], this molecule yielded a half-inhibitory concentration (IC50) of 85.8 µM. Further, the “activity against topoisomerase II (M. tuberculosis gyrase supercoiling)” value on M. tuberculosis gyrase was “neither had significant activity”. Further, on E. coli gyrase, the “activity against topoisomerase II (E. coli gyrase supercoiling)” value is “neither had significant activity”. Further, in the series on Mtb CDC1551, the “mode of action against Mtb” value is given as “almost completely bacteriostatic”. The “decrease relative to vehicle control” value with Mtb CDC1551 (at 64-fold MIC) amounted to 1 log. For the same molecule, the “inhibition of topoisomerase I (MtbTopo1 relaxation)” value against MtbTopo1 is listed as “able to inhibit topoisomerase I”. Moreover, in the series on Mab 390S-lux, the “MIC Mab” value is 5.4 µM and 5.44 µM. Moreover, the “inhibition of topoisomerase I (EcTopo1 relaxation)” value at EcTopo1 was “able to inhibit topoisomerase I”.
Regarding `NCC[C@H](O)C(=O)N[C@@H]1C[C@H](N)[C@@H](O[C@H]2O[C@H](CN)[C@@H](O)[C@H](O)[C@H]2O)[C@H](O)[C@H]1O[C@H]1O[C@H](CO)[C@@H](O)[C@H](N)[C@H]1O` [amikacin], the “bactericidal activity against Mab in vitro” value with Mab was “poor bactericidal activity”.
For `CC(=O)OC[C@H]1O[C@@H]([S-])[C@H](OC(C)=O)[C@@H](OC(C)=O)[C@@H]1OC(C)=O.CCP(CC)CC.[Au+]` [auranofin], the “activity against Mtb” value in the series on Mtb is “bactericidal”.
In the case of `CCOC1CN=Cc2ccc[n]2[Au+][n]2cccc2C=NC1.F[P-](F)(F)(F)(F)F` (centres unmarked) [Compound 15], the “MIC Mtb” value in the series on Mtb-lux came to 4.61 µM. In series [2], this molecule showed an IC50 of 48.9 µM. In the series on Mtb CDC1551, the “mode of action against Mtb” value is “rapid and potent bactericidal activity”. For the same molecule, the “MIC Mab” value in the series with Mab 390S-lux worked out at 13.05 µM.
Consider `C1=NCCCN=Cc2ccc3[n]2[Au+][n]2c1ccc2-c1nc2ccccc2nc1-3.F[P-](F)(F)(F)(F)F` [Compound 8], for which the “MIC Mtb” value against Mtb-lux came to 2.72 µM. This molecule also displayed a half-maximal inhibitory concentration (IC50) in series [2] of 48.5 µM. Also, the “MIC Mab” value in the series on Mab 390S-lux is 849.41 µM.
Consider `ClC1CN=Cc2ccc3[n]2[Au+][n]2c(ccc2-c2nc4ccccc4nc2-3)C=NC1.F[P-](F)(F)(F)(F)F` (centres unmarked) [Compound 11], for which the “MIC Mtb” value against Mtb-lux came out at 4.06 µM. The molecule further yielded a half-maximal inhibitory concentration (IC50) in series [2] of 108 µM. Also, the “decrease in CFU/mL, early time-point” value in the series with Mtb CDC1551 (24 h) was greater than 1 log. Also, the “mode of action, latest time-point” value with Mtb CDC1551 (144 h, at 8, 4 and 2-fold MIC) is reported as “bacteriostatic”. In the series on Mab 390S-lux, the “MIC Mab” value was found to be 91.72 µM.
For the molecule `CC[C@H]1OC(=O)[C@H](C)[C@@H](O[C@H]2C[C@@](C)(OC)[C@@H](O)[C@H](C)O2)[C@H](C)[C@@H](O[C@@H]2O[C@H](C)C[C@H](N(C)C)[C@H]2O)[C@](C)(OC)C[C@@H](C)C(=O)[C@H](C)[C@@H](O)[C@]1(C)O` [clarithromycin], the “bactericidal activity against Mab in vitro” value with Mab is “poor bactericidal activity”.

Source of the values: patent US20200368249A1 (priority 2017, published 2020).
